In patent publication US5773027A, “Liposomes encapsulating antiviral drugs” (priority 1995, dated 1998):

Tests used:
[1] = Pharmacokinetics in rats (plasma); type: in vivo, rat (female Sprague-Dawley)
Protocol: (§1) In brief, free and liposome-encapsulated drugs were injected to female Sprague-Dawley rats as a single intravenous bolus dose via a catheter inserted through the jugular vein of animals. At specific time points, animals were sacrificed and blood was collected in heparinized tubes and separated by centrifugation. At the same time, selected tissues were removed, washed, weighed and homogenized. Tissues and plasma were then treated according to a commercial tissue solubilizer procedure. The determination of drug and lipid levels in all samples were monitored with radioactive tracers.
Parameters were calculated from the plasma concentrationtime curves using
a noncompartmental model.
Values are expressed as means ± SD obtained from 6 animals per group

[2] = tested on: human premonocytoid U937 cells; assay: Cellular uptake in U937 cells; details: in words, FIGS. 1a, 1b
Protocol: (§2) We have performed in vitro experiments to evaluate the accumulation of free and liposome-encapsulated anti-HIV agents in murine monocyte-macrophage RAW 264.7 cells and in human premonocytoid U937 cells. In brief, experiments were performed by incubating confluent cells in culture medium in presence of different concentrations of free and liposome-encapsulated anti-HIV agents in which a small proportion of radiolabeled drugs and lipids were added. At different incubation times, the medium was removed and cells were washed and treated with a Triton X-100 solution. Drug and lipid uptake were determined by measuring the radioactivity level with a liquid scintillation counter. The protein concentration for each sample was determined with a Pierce bicinchoninic acid protein assay (Rockford, Ill.) in microtiter plates.

HIV-1Ada-M = assay: Antiviral efficacy in primary monocyte-derived macrophages infected with HIV-1Ada-M (p24); type: cell-based
Protocol: Briefly, cells were infected with different strains of HIV with a multiplicity of infection of 1 (virus/target cell) and were treated with different concentrations of free and liposome-encapsulated drugs. Virus replication were monitored at different time intervals by measuring either the reverse transcriptase activity in cell-free supernatants or the viral p24 protein using an enzymatic test. Virus transcription was also monitored by polymerase chain reaction (PCR) analysis 24 hours after treatment using an HIV primer pair (M661/M667). The PCR evaluation was normalized with respect to the amount of human β-globin gene in cells. Cell viability was assessed using a tetrazolium-based colorimetric (MTT) assay.
Peripheral blood mononuclear cells were suspended in seeding medium in a
48 wellplate at a density of 3 × 10^6 cells/ml. Five days after
initiation of the cultures, nonadherent cells were removed by rinsing the
cultures four times with PBS. Adherent cells were first preincubated in
the presence or absence of drugcontaining medium for 2 hours prior to
inoculation with 10,000 cpm/well of the AdaM monocytotropic strain of
HIV1. Thereafter, medium was changed once every 4 to 5 days and was
replaced with medium supplemented or not with ddI. Virus replication was
monitored by measuring p24 levels using an enzymatic assay.

[3] = tested on: murine monocyte-macrophage RAW 264.7 cells; assay: Cellular uptake in RAW 264.7 cells; details: in words, FIGS. 1a-1d
Protocol: as §2

human CMV (AD169 strain) = assay: Anti-CMV activity: CMV p72 protein expression in MRC-5 cells; type: cell-based; details: MRC-5 cell line, 96 hours, in words; FIG. 2g
Protocol: The anti-CMV activity of free and liposome-encapsulated foscarnet has been also evaluated in embryonic lung fibroblast cells (MRC-5 cell line). […] After a 96 hours incubation, cells were fixed and immunoperoxydase staining was performed using a monoclonal antibody directed against a 72-kDa immediate early CMV protein Labeled plaques were counted and results were expressed as percent of untreated infected control cells versus concentration of foscarnet.

[4] = Tissue distribution in rats; type: in vivo, rat (female Sprague-Dawley); details: single i.v. dose 10 mg foscarnet/kg
Protocol: as §1

[5] = [^3 H]ddI, single i.v. dose 3 mg ddI/kg, rats
[6] = [^14 C]-PFA, single i.v. dose 10 mg/kg, rats, mean ± SD

O=c1[nH]cnc2c1ncn2[C@H]1CC[C@@H](CO)O1 [Free ddI, 2'-3'-dideoxyinosine]
AUC0-∞, area under the plasma concentration-time curve [1, 5]: 5.31 nmol/mL/h | Cl, systemic clearance [1, 5]: 39.8 mL/min/kg | Kel, elimination rate constant [1, 5]: 4.97 h⁻¹ | MRT, mean residence time [1, 5]: 12 min | Vdss, steady state volume of distribution [1, 5]: 0.48 L/kg | t1/2, elimination half-life [1, 5]: 8.4 min | drug uptake / accumulation in cells [2]: a higher accumulation | p24 (Days post-infection) (HIV-1Ada-M; 0.1 μM, day 7): 0 ng/mL | p24 (Days post-infection) (HIV-1Ada-M; 0.1 μM, day 13): 20 ng/mL | p24 (Days post-infection) (HIV-1Ada-M; 0.1 μM, day 17): 280 ng/mL | p24 (Days post-infection) (HIV-1Ada-M; 1 μM, day 7): 0 ng/mL | p24 (Days post-infection) (HIV-1Ada-M; 1 μM, day 13): 0 ng/mL | p24 (Days post-infection) (HIV-1Ada-M; 1 μM, day 17): 0 ng/mL | p24 (Days post-infection) (HIV-1Ada-M; 10 μM, day 7): 0 ng/mL | p24 (Days post-infection) (HIV-1Ada-M; 10 μM, day 13): 0 ng/mL | p24 (Days post-infection) (HIV-1Ada-M; 10 μM, day 17): 0 ng/mL | drug uptake / accumulation in cells [3]: a higher accumulation

O=C(O)P(=O)(O)O [Free foscarnet, foscarnet]
inhibitory activity against CMV p72 protein expression (human CMV (AD169 strain)): comparable inhibitory activity | AUC0→∞, area under the plasma concentration-time curve [1, 6]: 48.0 ± 9.6 nmol/mL/h | Cl, systemic clearance [1, 6]: 12.8 ± 2.5 mL/min/kg | Kel, elimination rate constant [1, 6]: 0.96 ± 0.06 h⁻¹ | MRT, mean residence time [1, 6]: 62.4 ± 4.2 min | t1/2, elimination half-life [1, 6]: 42.6 ± 2.4 min | Vdss, steady state volume of distribution ([1]; rat, in vivo, iv, 10 mg/kg): 0.80 ± 0.14 L/kg | Area under the curve, Brain ([4]; brain): 3.1 nmol foscarnet/g tissue/h | Area under the curve, Eyes ([4]; eyes): 22.9 nmol foscarnet/g tissue/h | Area under the curve, Liver ([4]; liver): 1.2 nmol foscarnet/g tissue/h | Area under the curve, Lungs ([4]; lungs): 1.5 nmol foscarnet/g tissue/h | Area under the curve, Lymph nodes ([4]; lymph nodes): 20.3 nmol foscarnet/g tissue/h | Area under the curve, Spleen ([4]; spleen): 0.8 nmol foscarnet/g tissue/h
